Measured values from US11542316B2, “S-Arrestin peptides and therapeutic uses thereof” (APITOPE INTERNATIONAL NV, priority 2017, dated 2023).
Ends that are not written are not given here.

Key:
[1] = target: T1, MHC II molecules present on dendritic cells (DC) (Homo sapiens, UniProt P01903+P01911); test: In vivo presentation experiment, DR2tg mice; details: 100 μg peptide s.c., CD11c+ cells harvested after 2 hours, co-culture 48 hours
T1 construct: from tissue; host or cells: CD11c+ dendritic cells from spleens of DR2tg mice (DRA*0101 and DRB1*1501 cDNAs under a mouse MHCII promoter, no mouse MHC class II)
T1 sequence (P01903 26-254): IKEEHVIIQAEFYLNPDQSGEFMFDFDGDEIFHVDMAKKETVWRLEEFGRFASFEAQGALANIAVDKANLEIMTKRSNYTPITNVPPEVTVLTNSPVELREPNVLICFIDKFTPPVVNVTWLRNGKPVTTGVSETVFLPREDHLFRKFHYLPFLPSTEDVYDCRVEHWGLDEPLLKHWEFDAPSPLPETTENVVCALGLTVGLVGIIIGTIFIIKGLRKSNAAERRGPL
T1 sequence (P01911 30-266): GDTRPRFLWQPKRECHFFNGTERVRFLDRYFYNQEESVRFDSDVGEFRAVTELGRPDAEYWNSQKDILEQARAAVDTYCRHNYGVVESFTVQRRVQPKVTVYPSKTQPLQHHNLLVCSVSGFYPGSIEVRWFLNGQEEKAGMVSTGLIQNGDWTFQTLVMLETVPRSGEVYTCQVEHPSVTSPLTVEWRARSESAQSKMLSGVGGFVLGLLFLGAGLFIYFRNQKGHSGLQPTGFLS
Excerpt: FIG. 14: In vivo presentation protocol. Mice are immunized with peptide/CFA and a T cell line is established. For this, ten days after immunization the LN and spleens are harvested and cultured with different concentrations of peptide; 2×10^6 cells/ml APC+1×10^6 cells/ml CD4^+ cells per well. At day 7 the cells are re-stimulated with fresh APC and the same concentrations of peptide. After 14 to 21 days, CD4^+ cells are isolated from these cultures by magnetic bead isolation. These CD4^+ cells are co-cultured with CD11c^+ (dendritic) cells isolated by magnetic bead isolation from spleens of mice s.c. injected with peptide 2 hours before. Control mice receive a s.c. injection of PBS. After 48 hours, supernatant is collected and cytokine response (IFN-γ) is measured. […]
FIG. 17: In vivo presentation of HIP-9FL nested peptides in DR2 mice. […] After 48 hours, supernatant was collected and IFN-γ production was measured by ELISA. […]
DR3tg or DR2tg mice were injected with 100 μg of peptide in 100 μl PBS subcutaneously (s.c.) in the flank. […] After 48 hours, supernatant of these co-cultures was collected and CD4^+ T cell activation was analysed by IFN-γ ELISA (R&D Systems, Abingdon, UK). In a parallel experiment, CD4^+ T cell responses towards peptide added in vitro were assessed to make sure the T cells recognize the peptides presented by the CD11c^+ cells.

[2] = Solubility of peptides; format: physicochemical
Experimental: The solubility of potential apitopes from S—Ag are determined by visual observations and turbidity measurement by UV spectrophotometry at 280 nm. The solubility of the peptides can be modified by adding amino acids ‘GKK’ or ‘KKK’ (or similar) on both the C- and N-terminus of the sequence. Modifications that may be suitable are described in WO2014/072958 (which is hereby incorporated by reference).
For some of these peptides, the parental peptides were insoluble, and solubility is a critical parameter for them to work as a tolerogenic peptide. Several end-terminal modifications can be used and as example used here they were improved by addition of 3 lysines before and after the original peptide sequence (labelled as ‘-KKK’ versions).

[3] = tested on: LN and spleen cells; test: Immunogenicity of HIP-115 in DR3 mice (IFN-γ ELISA on LN and spleen cultures); format: in vivo; details: mice immunized with 50 μg HIP-115/CFA; LN and spleens cultured with 10 and 25 μg/ml HIP-115, 72 h
Experimental: FIG. 1: Immunogenicity of HIP-115 in DR3 mice. Mice were immunized with 50 μg HIP-115/CFA or PBS/CFA in the tail base. After 10 days, LN and spleens were harvested and cultured with 10 μg/ml and 25 μg/ml of HIP-115. Supernatants were collected after 72 h. Cell activation was measured by IFN-γ ELISA. (A) Immunogenicity in LN. (B) Immunogenicity in spleens. CFA, Complete Freund's Adjuvant; LN, lymph nodes.
Animal experiments were done to verify the predictions. Mice that were immunized with SAg (or fragments of it) were tested for their capacity to elicit an immune response when probed with the whole protein or parts of it. […] This response can be observed in secondary lymphoid organs, namely spleen (FIG. 1A) and lymph nodes (LN; FIG. 1B).

[4] = tested on: SAg-specific hybridoma cells / T cell line with VAVY APC; test: Antigen Processing Independent Presentation System (APIPS) assay, fresh or fixed VAVY APC; format: cell-based, DR3 mice; details: DR3 hybridoma clone (IL-2, 48 h) or T cell line (IFN-γ, 24 h)
Experimental: (§1) FIG. 2: identification of apitopes within HIP-115. (A) DR3 mice were immunized with SAg and hybridomas were generated. 5×10^4 SAg-specific hybridoma cells were cultured with 5×10^4 fresh or fixed commercial APC (VAVY) cells. T cell proliferation was measured by IL-2 ELISA on supernatants collected after 48 h. The graph represents the mean of duplicate measurements±SEM. (B) DR3 mice were immunized with HIP-115 and a T cell line was established. Ten days after immunization the LN and spleens were harvested and cultured with different concentrations of peptide (0.1-1-2.5 and 5 μg/ml); 2×10^6 cells/ml APC+1×10^6 cells/ml CD4 T cells per well. At day 7 the cells were re-stimulated with the same concentrations of peptide. On day 14 an APIPS test was done using commercial APC (VAVY). After 24 h, antigen-induced T cell activation was measured by IFN-γ ELISA and shown as IFN-γ concentration (pg/ml). The graph represents the mean of duplicate measurements±SEM. LN, lymph nodes; APC, Antigen presenting cell; APIPS, Antigen Processing Independent Presentation System.
as §1, with “3:” for “2:”, “HIP-241125.” for “HIP-115.”, “HIP-241125+HIP-24DG” for “HIP-115”
(§2) FIG. 5: Identification of apitopes within HIP-17GN. DR3 mice were immunized with HIP-17GN and a T cell line was established. Ten days after immunization the LN and spleens were harvested and cultured with different concentrations of peptide (0.1-1-2.5 and 5 μg/ml); 2×10^6 cells/ml APC+1×10^6 cells/ml CD4 T cells per well. At day 7 the cells were re-stimulated with the same concentrations of peptide. On day 14 an APIPS test was done using commercial APC (VAVY). After 24 h, antigen-induced T cell activation was measured by IFN-γ ELISA and shown as OD values. The graph represents the mean of triplicate measurements±SEM. LN, lymph nodes; APC, Antigen presenting cell; APIPS, Antigen Processing Independent Presentation System.
as §2, with “6:” for “5:”, “HIP-12AK.” for “HIP-17GN.”, “HIP-12AK” for “HIP-17GN”, “IFN-γ concentration (pg/ml).” for “OD values.”, “duplicate” for “triplicate”
Antigen-specific clones or TCL were tested for their reactivity to the peptides, presented by fixed or not fixed (fresh) cells (VAVY or MGAR) (=APCs). 5×10^4 cells from the individual clones were cultured with 10 μg/ml peptide and 5×10^4 fixed or fresh APCs. […]

AFVEQVANVVL-NH2 [HIP-9K1, AFVEQVANVVL]
picked up and presented by MHC II on dendritic cells to peptide-specific T cells (IFN-γ production) [1]: not able to cause this activation | solubility [2]: insoluble

MAASGKTSKSEPNHVIFKKISRDKSVTIYLGNRDYIDHVSQV-NH2 [HIP-115]
immune response against HIP-115 (IFN-γ ELISA) [3]: develop an immune response against it | behaves as apitope (response to peptide presented by fresh or fixed APC) [4]: behave as apitopes
